Consider 1 compound from patent US20250367109A1, “DEVICES, SYSTEMS, AND METHODS FOR IMPROVED BONE REMODELING” (UNIVERSITY OF UTAH RESEARCH FOUNDATION, priority 2024, published 2025).

This series is described as follows: local elution of estradiol from implant in left proximal humerus; estradiol concentration in tendon tissue samples by mass spectroscopy. The settings on record: one week after implantation into left proximal humerus; compared with right rotator cuff, left and right Achilles tendon; 200 micrograms estradiol load. Type of series: in vivo, wild-type rats.

Description: Drug-eluting implants analogous to drug-eluting implant 200 were comprised of polycaprolactone and estradiol. The drug-eluting implants were in the form of a cylinder 1 mm in diameter and 5 mm long, and loaded with 200 micrograms of estradiol. The drug-eluting implants were implanted into the left proximal humeri of wild-type rats. One week following implantation, the animals were euthanized and tendon tissue samples were collected at the following sites: left rotator cuff (target site), right rotator cuff, left Achilles tendon, and right Achilles tendon. Mass spectroscopy was used to determine the estradiol concentration in the tissue samples, and the results are provided in an estradiol concentration chart 300.

Take `C[C@]12CC[C@@H]3c4ccc(O)cc4CC[C@H]3[C@@H]1CC[C@@H]2O` [estradiol]: the “estradiol concentration in left rotator cuff tissue (target site) relative to remote tendon sites” value is recorded as “significantly higher local estradiol concentrations at the target region relative to other regions”.
